According to patent US10059695B2, “Cot modulators and methods of use thereof” (Gilead Sciences, Inc., priority 2016, dated 2018):

Columns and labels:
Human Cot = Human Cot (Homo sapiens (Human), UniProt P41279); test: High Throughput Cot Biochemical Assay (KinEASE TR-FRET); settings: recombinant human Cot catalytic domain, 400 μM ATP
Method: Example 24: High Throughput Cot Biochemical Assay
Human Cot enzyme activity was measured using KinEASE (Cisbio), a time-resolved fluorescence resonance energy transfer (TR-FRET) immunoassay. In this assay, Cot-catalyzes the phosporylation of a XL665-labeled peptide substrate. Europium conjugated […] specific antibody binds the resulting phosphorylated peptide. Formation of phosphorylated peptide is quantified by TR-FRET with Europium as the donor and XL665 the acceptor in a 2-step endpoint assay. Purified recombinant human Cot catalytic domain (30-397 amino acids) was purchased from Carna Biosciences. In brief, test compounds serially diluted in DMSO were delivered into Proxy white, low volume, 384 well plates using the Echo 550 acoustic liquid dispenser (Labcyte®). Cot enzyme and substrates were dispensed into assay plates using a Multi-Flo (Bio-Tek Instruments). The standard 5 μL reaction mixture contained 400 μM ATP, 1 μM STK3 peptide, 5 nM of Cot in reaction buffer (10 mM MOPS, pH 7.0, 0.02% NaN3, 0.5 mg/mL BSA, 10 mM MgOAc, 1 mM DTT, 0.025% NP-40, 1.5% glycerol) and 0.1% DMSO. After 2.5 hrs of incubation at room temperature, 5 μL of Stop and Detect Solution (1:200 Europium Cryptate labeled anti-phosphorylated peptide antibody solution and 125 nM strepavidin-XL665 Tracer in a 50 mM Hepes pH 7.0 detection buffer containing sufficient EDTA) was added. The plate was then further incubated for 120 minutes at room temperature and read using an Envision 2103 Multilabeled reader (PerkinElmer) with excitation/emission/FRET emission at 340 nm/615 nm/665 nm, respectively. Fluorescence intensities at 615 nm and 665 nm emission wavelengths were expressed as a ratio (665 nm/615 nm).

TNFα = test: Cot Monocyte TNFα Cell Based Assay; settings: LPS-stimulated cryopreserved human monocytes, TNFα by TR-FRET
Method: Example 23: Cot Monocyte TNFα Cell Based Assay
Cryopreserved human monocytes (Stem Cell Technologies) were thawed, diluted in RPMI with Glutamax (10 mM HEPES, 1× Pen-Strep, 55 μM β-mercaptoethanol, 1 mM Sodium pyruvate) media containing 10% FBS to 0.125×10^6 cells/ml and recovered at 37° C. for 2 hours. The cell suspension was then plated at a density of 5,000 cells/well onto black 384 well Greiner clear bottom plates. Plates were pre-spotted with test compounds and serially diluted in DMSO where 200 nL/well were delivered using the Echo 550 acoustic liquid dispenser (Labcyte®) for a final DMSO concentration of 0.5%. Plated cells were treated with compound for 1 hour at 37° C. Cells were then stimulated with 50 μg/ml of LPS (Sigma) excluding outside columns of plate used for unstimulated cell control wells. Cells were incubated for an additional 4 hours at 37° C. Cells were then spun out of the media and 5 μl of sample were taken and analyzed for total TNFα content using the TR-FRET Human TNFα detection system (CisBio). This system utilizes two labeled antibodies (cryptate and XL665) that bind to two different epitopes of the TNFα molecule and produce FRET signal proportional to the concentration of TNFα in the sample. Detection antibodies are mixed 50:50 and 5 μL were dispensed into each well. Plates were covered with clear seals and incubated at room temp overnight. The following morning plates were read using an Envision 2103 Multilabeled reader (PerkinElmer) with excitation/emission/FRET emission at 340 nm/615 nm/665 nm, respectively. Fluorescence intensities at 615 nm and 665 nm emission wavelengths were expressed as a ratio (665 nm/615 nm). Percent of control was calculated as follows: % Control=100×(RatioSample−Ratio0% stimulation)/(Ratio100% Stimulation−Ratio0% Stimulation) where unstimulated cells (0% stimulation) were the negative control and stimulated cells (100% stimulation) were used as the positive control.

Chain of Human Cot (P41279 30-397): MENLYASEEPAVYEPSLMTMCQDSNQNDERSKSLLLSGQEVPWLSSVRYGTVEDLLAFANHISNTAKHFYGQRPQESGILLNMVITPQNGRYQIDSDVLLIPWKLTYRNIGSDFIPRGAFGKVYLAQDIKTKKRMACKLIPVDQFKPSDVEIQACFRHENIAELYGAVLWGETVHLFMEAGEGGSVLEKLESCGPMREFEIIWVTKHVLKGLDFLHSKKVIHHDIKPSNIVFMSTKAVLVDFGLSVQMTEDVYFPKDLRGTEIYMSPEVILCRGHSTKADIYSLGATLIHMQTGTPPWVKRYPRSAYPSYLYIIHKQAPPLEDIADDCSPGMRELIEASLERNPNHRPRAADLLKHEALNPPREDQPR

SMILES: CC(C)(C)CNc1ncnc2c(Br)cc(N[C@H](c3cn(C4(C(F)(F)F)CC4)nn3)c3cccc4ncsc34)cc12 [I-18, (S)-N^6-(benzo[d]thiazol-7-yl(1-(1-(trifluoromethyl)cyclopropyl)-1H-1,2,3-triazol-4-yl)methyl)-8-bromo-N^4-neopentylquinazoline-4,6-diamine]
- IC50 (Human Cot): 8 nM
- EC50 (TNFα): 195 nM

SMILES: [2H][C@](Nc1cc(Cl)c2ncnc(N[C@H](CCC#N)c3ccccc3)c2c1)(c1ccc(F)cc1)c1cn(C2CC2)nn1 [I-11, (R)-4-((8-chloro-6-(((S)-(1-cyclopropyl-1H-1,2,3-triazol-4-yl)(4-fluorophenyl)methyl-d)amino)quinazolin-4-yl)amino)-4-phenylbutanenitrile]
- IC50 (Human Cot): 46 nM
- EC50 (TNFα): 671 nM

SMILES: Fc1ccc(Nc2ncnc3c(Cl)cc(N[C@@H](c4ccccc4)c4cn(C5CCNCC5)nn4)cc23)cc1Cl [II-9, (S)-8-chloro-N4-(3-chloro-4-fluorophenyl)-N6-(phenyl(1-(piperidin-4-yl)-1H-1,2,3-triazol-4-yl)methyl) quinazoline-4,6-diamine]
- IC50 (Human Cot): 8.3 nM
- EC50 (TNFα): 337 nM

SMILES: [2H][C@](Nc1cc(Cl)c2ncnc(N[C@H](CCC#N)c3ccccc3)c2c1)(c1ccc(F)cc1)c1cn(C2(C(F)(F)F)CC2)nn1 [I-12, (R)-4-((8-chloro-6-(((S)-(4-fluorophenyl)(1-(1-(trifluoromethyl)cyclopropyl)-1H-1,2,3-triazol-4-yl)methyl-d)amino)quinazolin-4-yl)amino)-4-phenylbutanenitrile]
- IC50 (Human Cot): 137 nM
- EC50 (TNFα): > 1000 nM

SMILES: CC(C)(C)CNc1ncnc2ccc(N[C@H](c3cn(C4CC4)nn3)c3ccccc3Cl)cc12 [I-8, (S)-N^6-((2-chlorophenyl)(1-cyclopropyl-1H-1,2,3-triazol-4-yl)methyl)-N^4-neopentylquinazoline-4,6-diamine]
- IC50 (Human Cot): 13 nM
- EC50 (TNFα): 169 nM

SMILES: CC(C)(C)CNc1ncnc2c(C#N)cc(N[C@H](c3cn(C4(C(F)(F)F)CC4)nn3)c3cccc4ncsc34)cc12 [I-17, (S)-6-((benzo[d]thiazol-7-yl(1-(1-(trifluoromethyl)cyclopropyl)-1H-1,2,3-triazol-4-yl)methyl)amino)-4-(neopentylamino) quinazoline-8-carbonitrile]
- IC50 (Human Cot): 3.3 nM
- EC50 (TNFα): 59 nM

SMILES: [2H][C@@](Nc1cc(C#N)c2ncnc(NCC(C)(C)C)c2c1)(c1cn(C2(C#N)CC2)nn1)c1ccccc1Cl [I-20, (S)-6-(((2-chlorophenyl)(1-(1-cyanocyclopropyl)-1H-1,2,3-triazol-4-yl)methyl-d)amino)-4-(neopentylamino) quinazoline-8-carbonitrile]
- IC50 (Human Cot): 3.3 nM
- EC50 (TNFα): 35 nM

SMILES: [2H][C@](Nc1cc(Cl)c2ncnc(NCC(C)(C)C)c2c1)(c1ccc(F)cc1)c1cn(C2(CF)CC2)nn1 [I-16, (S)-8-chloro-N^6-((1-(1-(fluoromethyl)cyclopropyl)-1H-1,2,3-triazol-4-yl)(4-fluorophenyl)methyl-d)-N^4-neopentylquinazoline-4,6-diamine]
- IC50 (Human Cot): 3.1 nM
- EC50 (TNFα): 46 nM

SMILES: CCN1CCC(n2cc([C@@H](Nc3cc(Cl)c4ncnc(Nc5ccc(F)c(Cl)c5)c4c3)c3ccc(Cl)cc3)nn2)CC1 [II-10, (S)-8-chloro-N^4-(3-chloro-4-fluorophenyl)-N^6-((4-chlorophenyl)(1-(1-ethylpiperidin-4-yl)-1H-1,2,3-triazol-4-yl)methyl) quinazoline-4,6-diamine]
- IC50 (Human Cot): 17 nM
- EC50 (TNFα): 527 nM

SMILES: Fc1ccc(Nc2ncnc3ccc(N[C@@H](c4ccc(Cl)cc4)c4cn(C5CCN(C6COC6)CC5)nn4)cc23)cc1Cl [II-8, (S)-N4-(3-chloro-4-fluorophenyl)-N6-((4-chlorophenyl)(1-(1-(oxetan-3-yl)piperidin-4-yl)-1H-1,2,3-triazol-4-yl)methyl) quinazoline-4,6-diamine]
- IC50 (Human Cot): 318 nM
- EC50 (TNFα): 1240 nM

SMILES: Cn1ccc2c([C@H](Nc3cc(Cl)c4ncnc(NCC(C)(C)C)c4c3)c3cn(C45CC(C4)C5)nn3)cccc2c1=O [I-27, (S)-5-((1-(bicyclo[1.1.1]pentan-1-yl)-1H-1,2,3-triazol-4-yl)((8-chloro-4-(neopentylamino)quinazolin-6-yl)amino)methyl)-2-methylisoquinolin-1(2H)-one]
- IC50 (Human Cot): 1.7 nM
- EC50 (TNFα): 12.1 nM

SMILES: [2H][C@](Nc1ccc2ncnc(NCC3(C)CCOCC3)c2c1)(c1ccc(F)cc1)c1cn(C2CC2)nn1 [I-3, (S)-N^6-((1-cyclopropyl-1H-1,2,3-triazol-4-yl)(4-fluorophenyl)methyl-d)-N^4-((4-methyltetrahydro-2H-pyran-4-yl)methyl)quinazoline-4,6-diamine]
- IC50 (Human Cot): 11 nM
- EC50 (TNFα): 296 nM

SMILES: CCN1CCC(n2cc([C@@H](Nc3cc(Cl)c4ncnc(Nc5ccc(F)c(Cl)c5)c4c3)c3ccccc3)nn2)CC1 [II-4, (S)-8-chloro-N^4-(3-chloro-4-fluorophenyl)-N^6-((1-(1-ethylpiperidin-4-yl)-1H-1,2,3-triazol-4-yl)(phenyl)methyl) quinazoline-4,6-diamine]
- IC50 (Human Cot): 5.9 nM
- EC50 (TNFα): 254 nM

SMILES: Fc1ccc(Nc2ncnc3ccc(N[C@@H](c4ccc(Cl)cc4)c4cn(C5CCNCC5)nn4)cc23)cc1Cl [II-6, (S)-N^4-(3-chloro-4-fluorophenyl)-N^6-((4-chlorophenyl)(1-(piperidin-4-yl)-1H-1,2,3-triazol-4-yl)methyl) quinazoline-4,6-diamine]
- IC50 (Human Cot): 49 nM

SMILES: CCN1CCC(n2cc(C(Nc3cc(Cl)c4ncnc(Nc5ccc(F)c(Cl)c5)c4c3)c3ccccc3)nn2)CC1 (stereo not drawn) [II-3, 8-chloro-N^4-(3-chloro-4-fluorophenyl)-N^6-((1-(1-ethylpiperidin-4-yl)-1H-1,2,3-triazol-4-yl)(phenyl)methyl) quinazoline-4,6-diamine]
- IC50 (Human Cot): 19 nM

SMILES: Fc1ccc(Nc2ncnc3ccc(N[C@@H](c4ccc(Cl)cc4)c4cn(C5COC5)nn4)cc23)cc1Cl [II-7, (S)-N^4-(3-chloro-4-fluorophenyl)-N^6-((4-chlorophenyl)(1-(oxetan-3-yl)-1H-1,2,3-triazol-4-yl)methyl) quinazoline-4,6-diamine]
- IC50 (Human Cot): 284 nM

SMILES: Fc1ccc(Nc2ncnc3c(Cl)cc(NC(c4ccccc4)c4cn(C5CCNCC5)nn4)cc23)cc1Cl (stereo not drawn) [II-2, 8-chloro-N^4-(3-chloro-4-fluorophenyl)-N^6-(phenyl(1-(piperidin-4-yl)-1H-1,2,3-triazol-4-yl)methyl) quinazoline-4,6-diamine]
- IC50 (Human Cot): 28 nM

SMILES: CC(C)(C)N1CCC(n2cc([C@@H](Nc3ccc4ncnc(Nc5ccc(F)c(Cl)c5)c4c3)c3ccc(Cl)cc3)nn2)CC1 [II-5, (S)-N^6-((1-(1-(tert-butyl)piperidin-4-yl)-1H-1,2,3-triazol-4-yl)(4-chlorophenyl)methyl)-N^4-(3-chloro-4-fluorophenyl) quinazoline-4,6-diamine]
- IC50 (Human Cot): 72 nM

SMILES: Cc1c(C#N)cccc1[C@H](Nc1cc(Cl)c2ncnc(NCC(C)(C)C)c2c1)c1cn(C2(C(F)F)CC2)nn1 [I-23, (S)-3-(((8-chloro-4-(neopentylamino)quinazolin-6-yl)amino)(1-(1-(difluoromethyl)cyclopropyl)-1H-1,2,3-triazol-4-yl)methyl)-2-methylbenzonitrile]
- IC50 (Human Cot): 1.6 nM

SMILES: O=C(OCc1ccccc1)N1CCC(n2cc(C(Nc3cc(Cl)c4ncnc(Nc5ccc(F)c(Cl)c5)c4c3)c3ccccc3)nn2)CC1 (stereo not drawn) [II-1, benzyl 4-(4-(((8-chloro-4-((3-chloro-4-fluorophenyl)amino)quinazolin-6-yl)amino)(phenyl)methyl)-1H-1,2,3-triazol-1-yl)piperidine-1-carboxylate]
- IC50 (Human Cot): 8480 nM
